Experimental data reported in patent publication US12428388B2, “Nonionic polyether surfactants” (Cepheid, priority 2020, dated 2025).

How the values were obtained:
[1] = Stability in 2M NaOH (visual observation); assay type: physicochemical; conditions: 1% surfactant in 2M NaOH, room temperature
Protocol: In the following experiments, the properties of exemplary reduced polysorbates were compared with the starting materials purchased from Sigma: Tween 20® BioXtra, Cat No P7949 and Tween 80® BioXtra, Cat No P8074
The following solutions are prepared in two vials: (A) 1% Tween 20® in 2M NaOH; (B) 1% Compound 2 in 2M NaOH. Both solutions were left at room temperature and the changes were observed visually.
Similarly, hydrolytic stability of (A) Tween 80® and (B) Compound 2 were compared.

[2] = target: T1, Lipase from porcine pancreas (Sus scrofa, UniProt P00591); assay: Resistance to Lipase Hydrolysis; assay type: in vitro ADME; conditions: 1% surfactant in 10 mM tris-HCl (pH 8.0), CaCl2, Lipase from porcine pancreas (Sigma L3126), room temperature
T1 construct: Lipase from porcine pancreas (Sigma L3126); purchased Sigma L3126; host or cells: porcine pancreas (tissue-derived)
T1 sequence (P00591 1-450): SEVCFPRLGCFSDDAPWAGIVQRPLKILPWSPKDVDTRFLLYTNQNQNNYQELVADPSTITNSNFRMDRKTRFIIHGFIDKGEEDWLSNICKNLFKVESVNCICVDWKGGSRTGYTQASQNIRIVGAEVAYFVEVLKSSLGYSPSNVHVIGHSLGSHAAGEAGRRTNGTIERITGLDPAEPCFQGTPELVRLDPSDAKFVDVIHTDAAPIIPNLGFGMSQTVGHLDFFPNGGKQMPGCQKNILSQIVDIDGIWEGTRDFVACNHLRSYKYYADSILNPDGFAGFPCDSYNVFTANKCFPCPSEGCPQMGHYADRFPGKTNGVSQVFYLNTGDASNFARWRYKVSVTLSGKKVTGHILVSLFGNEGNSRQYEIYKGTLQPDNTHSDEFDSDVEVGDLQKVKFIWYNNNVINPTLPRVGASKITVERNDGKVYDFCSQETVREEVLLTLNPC
Protocol: (§1) Stability of surfactants in the presence of hydrolyzing enzymes was tested according to a simplified literature procedure (Francisco J. Plou, Manuel Ferrer, Oscar M. Nuero, Maria V. Calvo, Miguel Alcalde, Fuensanta Reyes, Antonio Ballesteros. Analysis of Tween 80 as an esterase/lipase substrate for lipolytic activity assay. Biotechnology Techniques, Vol 12, No 3, March 1998, pp. 183-186.)
B1. Resistance to Lipase Hydrolysis
The following solutions are prepared in two vials: (A) to 20 mL of 1% Tween 20® in 10 mM tris-HCl (pH 8.0) is added 1 mL of 5% CaCl2) followed by 2 mL of 2 mg/mL solution of Lipase from porcine pancreas (Sigma L3126) in 10 μM tris-HCl (pH 8.0); (B) to 20 mL of 1% Compound 1 in 10 mM tris-HCl (pH 8.0) is added 1 mL of 5% CaCl2) followed by 2 mL of 2 mg/mL solution of Lipase from porcine pancreas (Sigma L3126) in 10 μM tris-HCl (pH 8.0). Both solutions were left at room temperature, and changes were observed visually.

[3] = tested on: Esterase from porcine liver; assay: Resistance to Esterase Hydrolysis; assay type: in vitro ADME; conditions: 1% surfactant in 10 mM tris-HCl (pH 8.0), CaCl2, Esterase from porcine liver (Sigma E2884), room temperature
Protocol: as §1
B2. Resistance to Esterase Hydrolysis
The following solutions were prepared in two vials: (A) to 20 mL of 1% Tween 20® in 10 mM tris-HCl (pH 8.0) is added 1 mL of 5% CaCl2) followed by 40 μL of 100 UN/mL solution of Esterase from porcine liver (Sigma E2884) in 10 μM tris-HCl (pH 8.0); (B) to 20 mL of 1% Compound 1 in 10 mM tris-HCl (pH 8.0) is added 1 mL of 5% CaCl2 followed by 40 μL of 100 UN/mL solution of Esterase from porcine liver in 10 μM tris-HCl (pH 8.0). Both solutions were left at room temperature and changes were observed visually.

## polyoxyethylene sorbitan monolaurate [Tween 20®]
[1]
  hydrolytic stability in 2M NaOH, changes of the solution observed visually: became non-transparent within one hour and turned into stiff gel the next day
[2]
  stability to lipase hydrolysis, changes of the solution observed visually: became cloudy within one hour and became non-transparent the next day
[3]
  stability to esterase hydrolysis, changes of the solution observed visually: became cloudy within one hour and became non-transparent the next day

## polyoxyethylene sorbitan monooleate [Tween 80®]
[1]
  hydrolytic stability in 2M NaOH, changes of the solution observed visually: became cloudy within one hour and turned into a stiff gel the next day
